One compound from ChEMBL document CHEMBL4371054, “Dual inhibition of Kif15 by oxindole and quinazolinedione chemical probes” (Bioorg Med Chem Lett, 2019) can be followed below.

Test [1] deals with T1, Kinesin-like protein KIF15 (Homo sapiens) (UniProt Q9NS87).
T1 sequence (whole entry): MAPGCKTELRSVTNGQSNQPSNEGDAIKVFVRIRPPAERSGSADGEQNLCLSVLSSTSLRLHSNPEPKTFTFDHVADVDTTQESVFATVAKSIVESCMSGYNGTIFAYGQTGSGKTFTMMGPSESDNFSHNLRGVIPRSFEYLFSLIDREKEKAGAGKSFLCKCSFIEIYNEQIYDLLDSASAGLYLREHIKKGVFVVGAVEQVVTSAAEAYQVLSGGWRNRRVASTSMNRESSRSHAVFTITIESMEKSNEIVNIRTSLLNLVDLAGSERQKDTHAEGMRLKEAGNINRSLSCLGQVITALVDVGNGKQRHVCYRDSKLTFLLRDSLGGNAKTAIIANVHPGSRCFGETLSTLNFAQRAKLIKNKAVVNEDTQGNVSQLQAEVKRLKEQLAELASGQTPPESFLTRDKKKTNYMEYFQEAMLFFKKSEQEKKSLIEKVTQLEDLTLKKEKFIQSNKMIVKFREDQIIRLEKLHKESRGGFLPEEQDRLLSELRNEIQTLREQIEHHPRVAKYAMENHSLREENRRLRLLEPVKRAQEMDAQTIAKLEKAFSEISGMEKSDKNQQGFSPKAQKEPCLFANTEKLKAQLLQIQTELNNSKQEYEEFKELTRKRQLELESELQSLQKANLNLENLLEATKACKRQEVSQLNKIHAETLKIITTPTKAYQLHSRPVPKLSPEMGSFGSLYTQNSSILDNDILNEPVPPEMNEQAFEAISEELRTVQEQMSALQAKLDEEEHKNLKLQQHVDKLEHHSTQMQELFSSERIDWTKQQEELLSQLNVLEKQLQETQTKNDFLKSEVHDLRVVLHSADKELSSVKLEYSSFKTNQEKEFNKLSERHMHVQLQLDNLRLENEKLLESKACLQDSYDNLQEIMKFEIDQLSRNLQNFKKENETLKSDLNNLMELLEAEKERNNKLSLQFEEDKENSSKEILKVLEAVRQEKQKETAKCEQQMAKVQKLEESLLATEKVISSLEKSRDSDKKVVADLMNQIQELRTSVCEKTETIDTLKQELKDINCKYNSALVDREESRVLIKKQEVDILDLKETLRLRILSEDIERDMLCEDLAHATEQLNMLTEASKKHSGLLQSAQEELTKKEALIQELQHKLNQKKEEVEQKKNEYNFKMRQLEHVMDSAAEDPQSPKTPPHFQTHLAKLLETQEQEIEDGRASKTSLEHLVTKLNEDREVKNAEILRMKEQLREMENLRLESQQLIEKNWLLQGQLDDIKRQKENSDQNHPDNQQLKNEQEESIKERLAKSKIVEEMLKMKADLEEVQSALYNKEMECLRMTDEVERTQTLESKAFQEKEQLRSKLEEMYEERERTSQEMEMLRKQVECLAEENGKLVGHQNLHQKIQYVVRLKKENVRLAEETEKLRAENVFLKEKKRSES
Put plainly: Inhibition of Kif15 in TP53-deficient human RPE1 cells assessed as reduction in spindle-bound Kif15 level at 25 uM after 24 hrs by Hoechst 33342 staining based immunofluorescence microscopic analysis relative to control.

In test [2] the target is T1, Kinesin-like protein KIF15 (Homo sapiens). The experiment in a line: Inhibition of Kif15 in TP53-deficient human RPE1 cells assessed as cells with bipolar pre-anaphase microtubule structure at 25 uM after 24 hrs by Hoechst 33342 staining based immunofluorescence microscopic analysis (reference value: 90 to 94%). Set-up: scale not given: the % may be the effect or the level left.

Test [3] has the same target. The experiment in a line: Inhibition of Kif15 in K51-resistant human KIRC1 cells assessed as cells with monopolar spindles at 25 uM after 24 hrs by Hoechst 33342 staining based immunofluorescence microscopic analysis (reference value: 43 to 49%). Set-up: scale not given: the % may be the effect or the level left.
Test [4] has as its target T2, Kinesin-like protein KIF11 (Homo sapiens) (UniProt P52732).
T2 sequence (whole entry): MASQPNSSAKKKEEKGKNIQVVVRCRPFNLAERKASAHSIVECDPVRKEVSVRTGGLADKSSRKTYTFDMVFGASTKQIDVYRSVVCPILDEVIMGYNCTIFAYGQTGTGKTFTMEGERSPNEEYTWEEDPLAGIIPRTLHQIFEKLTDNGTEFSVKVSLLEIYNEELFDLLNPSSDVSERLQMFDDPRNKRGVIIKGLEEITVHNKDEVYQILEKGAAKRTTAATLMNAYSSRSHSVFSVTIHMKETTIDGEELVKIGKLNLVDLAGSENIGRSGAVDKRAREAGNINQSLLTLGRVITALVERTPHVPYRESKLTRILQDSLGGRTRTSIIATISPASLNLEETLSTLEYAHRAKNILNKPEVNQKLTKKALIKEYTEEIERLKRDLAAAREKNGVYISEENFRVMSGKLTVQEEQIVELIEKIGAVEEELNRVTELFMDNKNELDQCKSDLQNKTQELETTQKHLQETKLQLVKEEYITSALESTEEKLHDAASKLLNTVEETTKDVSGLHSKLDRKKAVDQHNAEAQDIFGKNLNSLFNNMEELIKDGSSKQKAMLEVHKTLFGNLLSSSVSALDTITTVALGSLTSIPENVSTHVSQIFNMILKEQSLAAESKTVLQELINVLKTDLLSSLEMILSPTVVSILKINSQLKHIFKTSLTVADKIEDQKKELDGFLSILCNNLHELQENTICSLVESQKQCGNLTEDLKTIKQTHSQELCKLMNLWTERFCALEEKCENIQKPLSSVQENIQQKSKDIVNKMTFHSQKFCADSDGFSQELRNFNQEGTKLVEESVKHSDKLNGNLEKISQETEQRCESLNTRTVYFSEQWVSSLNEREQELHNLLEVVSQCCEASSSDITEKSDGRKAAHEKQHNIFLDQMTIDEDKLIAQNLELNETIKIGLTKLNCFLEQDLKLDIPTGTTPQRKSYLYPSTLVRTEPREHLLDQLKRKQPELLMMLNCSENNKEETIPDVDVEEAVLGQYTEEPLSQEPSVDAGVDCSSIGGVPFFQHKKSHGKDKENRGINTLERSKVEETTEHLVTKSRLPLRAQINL
Put plainly: Inhibition of Eg5 (unknown origin) assessed as reduction in Alexa-594 labelled microtubule gliding at 30 uM measured every 2 secs for 20 secs by epifluorescence microscopic analysis relative to control.

For test [5], the target named is T1, Kinesin-like protein KIF15 (Homo sapiens). Put plainly: Inhibition of Kif15 in TP53-deficient human RPE1 cells assessed as reduction in Kif15 level at 25 uM after 24 hrs by Western blot analysis relative to control. For orientation: In western blotting, separated proteins are transferred to a membrane and probed.

Molecules are shown by their SMILES.

As for `O=C1Nc2ccc(C(=O)c3ccco3)cc2/C1=C/c1cc(Cl)c(O)c(Cl)c1`, in test [1], the fold change (FC) amounted to 3. In addition, the results for the Activity in test [2] and in test [3] were 84% and 95%, respectively. In addition, the inhibition in test [4] came out at 19.8%; in test [5], 60%.

One may read the inhibition as how much of the control response was suppressed.
